Converted amounts (≈) assume the structure as drawn. “And” between values parts separate entries of the source, which are not always exact repeats. Identical values can stand only once. Like-named read-outs stand apart in the source and are kept apart here.
Assays:
[1] = metabolic stability in liver microsomes; assay type: in vitro ADME, mouse; conditions: for microsomal CLint at 1 µM: read-out: in vitro CLint; for half-life at 1 µM: read-out: in vitro t1/2; for CLint scaled at 1 µM: liver microsomes, read-out: Scale-up CLint
Experimental: (§1) Metabolic stability was assessed in mouse and rat liver microsomes. Microsomes are subcellular fractions of hepatocytes and contain CYP450s, the predominant enzymes involved in first-pass metabolism.[66] […] A plasma protein binding assay was performed to assess the extent of compound binding to plasma proteins. This is key as only unbound compound is free to distribute and exert a pharmacological effect. […] To assess the potential for this sub-class of SSAs to be developed as drugs for oral administration, Caco-2 permeability assays were also performed, as a cellular model indicative of human intestinal permeability.
(§2) Section 3: Biological methods […]
(§3) In vitro Absorption, Distribution and Metabolism
(§4) These studies were performed by Contract Research Organisation (CRO) Pharmaron. The methodology provided within the ESI is published within the express permission of this organisation. The percentage of a compound recovered during the analysis process should be 100 %; any deviation from this value indicates experimental limitations such as unintended potential non-specific binding events to experimental equipment, solubility issues, etc.
(§5) Metabolic Stability in Rat and Mouse Liver Microsomes:
(§6) The metabolic stability of compounds at a concentration of 1 µM, in rat and mouse liver […]
(§7) / mL) in the presence and absence of cofactor (NADPH) at 37 °C. Aliquots of each incubation were removed at 0.5, 5, 15, 30 and 60 minutes. The reaction was stopped by the addition of 5 volumes of cold acetonitrile containing analytical internal standard (IS).
(§8) Samples were then centrifuged at 3 °C, 220 g for 40 minutes to remove cell debris. The supernatant was aliquoted and added to ultra-pure H2O in a 1:1 ratio in preparation for LC- […]
(§9) Samples were analysed using a Shimadzu liquid chromatography system coupled to a Triple Quad 6500+ mass spectrometry (AB Inc.) Separation of compounds was achieved using an HSS T3 column (50 x 2.1 mm) at a temperature of 40 °C and a binary mobile phase gradient […]
(§10) at a flow rate of 0.7 mL/min. […]
(§11) acid in water) and 5 % solvent B (0.1 % formic acid in acetonitrile). […]
(§12) solvent B at 0.7 minutes, held for 0.5 minutes and then immedi ately returned to initial conditions. Sample analysis was by electrospray ionisation. […]

[2] = kinetic solubility determination in PBS pH 7.4; conditions: upper limit set at 300 µM; for solubility: PBS, pH 7.4, aqueous buffer, kinetic from dmso stock, Solubility in PBS pH 7.4, kinetic
E. faecalis NCTC 775 = experiment: inhibition of bacterial growth, OD600 after 20 h; assay type: cell-based, Enterococcus faecalis; conditions: SSA 5.0 mM, 2.5% ethanol, negative = enhanced growth
Experimental: (§13) With the self-associative properties of 1–10 established, the antimicrobial activity of these SSAs were determined against a panel of clinically relevant, high-priority pathogens including: P. aeruginosa PAO1; Klebsiella pneumonia (K. pneumoniae) M6; E. coli NCTC 12923; Acinetobacter baumannii (A. baumannii) ATCC 17978; S. aureus ATCC 9144; Enterococcus faecalis (E. faecalis) NCTC 775; and Enterococcus faecium (E. faecium) NCTC 12204. […] However, it should be noted that the SSA stock solution was prepared in a H2O 5% EtOH solution, to ensure that the SSA aggregates formed were in line with those characterised within the scope of the SSA self-association studies.
(§14) Section 3: Biological methods
(§15) These methods were taken directly from UK Health and Security Office (UKHSA) standard […]
(§16) Preparation of Luria Broth media (LB): Yeast extract (5.0 g), tryptone (10.0 g) and sodium chloride (10.0 g) were dissolved in dH₂O (1.0 L) then divided into bottles and autoclaved.
(§17) Preparation of Luria Broth (LB) agar plates: Agar (6.0 g) was added to LB (400 mL) and autoclaved. Once cool, the LB agar was poured into sterile petri dishes under sterile conditions and allowed to set. LB plates were stored at 4 °C until use.
(§18) Preparation of bacterial plates: Sterile LB agar plates were streaked using streaked using the desired bacteria i) Pseudomonas aeruginosa (P.aeruginosa) PAO1, ii) Klebsiella pneumoniae (K. pneumoniae) M6 iii) E. coli NCTC 12923 and iv) Acinetobacter baumannii (A. baumannii) ATCC 17978 and Gram-positive i) Staphylococcus aureus (S. aureus) ATCC 9144 ii) Enterococcus faecalis (E. faecalis) NCTC 775 and iii) Enterococcus faecium (E. faecium ) NCTC 12204, then incubated at 37 °C overnight.
(§19) Preparation of Inoculum: An initial culture was made up by inoculating LB media (5 mL) with a single colony of bacteria under sterile conditions and incubated at 37 °C with shaking overnight. The following day, overnight bacterial cultures were subcultured into fresh LB medium to a starting OD600 of 0.01.
(§20) Preparation of 96 well microplate for MIC50: The 1:100 cell suspension (150 µL) was dispensed into individual wells under sterile conditions. SSAs (30 µL) were added to the wells to equal a total volume of 180 µL in the wells. Six repeats of each concentration for each SSA were created each plate. The plates were sealed using parafilm, then incubated at 37 °C in a microplate reader for 20 hours. OD600 endpoint data was used to generate growth curves. […]

E. faecium NCTC 12204 = experiment: inhibition of bacterial growth, OD600 after 20 h; assay type: cell-based, Enterococcus faecium; conditions: SSA 5.0 mM, 2.5% ethanol, negative = enhanced growth
Experimental: as §13, §14, §15, §16, §17, §18, §19, §20

K. pneumoniae M6 = experiment: inhibition of bacterial growth, OD600 after 20 h; assay type: cell-based, Klebsiella pneumoniae; conditions: SSA 5.0 mM, 2.5% ethanol, negative = enhanced growth; for inhibition at 5000 µM: Klebsiella pneumoniae, M6, 20 h, read-out: Percentage inhibition of bacterial growth, M6 (K. pneumoniae)
Experimental: as §13, §14, §15, §16, §17, §18, §19, §20

S. aureus ATCC 9144 = experiment: inhibition of bacterial growth, OD600 after 20 h; assay type: cell-based, Staphylococcus aureus; conditions: SSA 5.0 mM, 2.5% ethanol, negative = enhanced growth; for inhibition at 5000 µM: Staphylococcus aureus, ATCC9144, 20 h, read-out: Percentage inhibition of bacterial growth, ATCC 9144 (S. aureus)
Experimental: as §13, §14, §15, §16, §17, §18, §19, §20

[3] = metabolic stability in liver microsomes; assay type: in vitro ADME, rat; conditions: for microsomal CLint at 1 µM: read-out: in vitro CLint; for half-life at 1 µM: read-out: in vitro t1/2; for CLint scaled at 1 µM: liver microsomes, read-out: Scale-up CLint
Experimental: as §1, §2, §3, §4, §5, §6, §7, §8, §9, §10, §11, §12

A. baumannii ATCC 17978 = experiment: inhibition of bacterial growth, OD600 after 20 h; assay type: cell-based, Acinetobacter baumannii; conditions: SSA 5.0 mM, 2.5% ethanol, negative = enhanced growth
Experimental: as §13, §14, §15, §16, §17, §18, §19, §20

[4] = mouse liver microsomes, 1 µM, 0.5 mg protein/mL
[5] = rat liver microsomes, 1 µM, 0.5 mg protein/mL

Structure (SMILES)	Hepatic Extraction Ratio (ER) ([1]; mouse)	Predicted Hepatic CLH ([1]; mouse) [L/h/kg]	microsomal CLint at 1 µM [1, 4] [µL/min/mg]	half-life at 1 µM [1, 4] [h]	Remaining percentage ([1]; mouse, +Cofactors, 0.5 min) [%]	Remaining percentage ([1]; mouse, +Cofactors, 5 min) [%]	Remaining percentage ([1]; mouse, +Cofactors, 15 min) [%]	Remaining percentage ([1]; mouse, +Cofactors, 30 min) [%]	Remaining percentage ([1]; mouse, +Cofactors, 60 min) [%]	Remaining percentage ([1]; mouse, -Cofactors, 0.5 min) [%]	Remaining percentage ([1]; mouse, -Cofactors, 60 min) [%]	Hepatic Extraction Ratio (ER) ([3]; rat)	Predicted Hepatic CLH ([3]; rat) [L/h/kg]	Remaining percentage ([3]; rat, +Cofactors, 0.5 min) [%]	Remaining percentage ([3]; rat, +Cofactors, 5 min) [%]	Remaining percentage ([3]; rat, +Cofactors, 15 min) [%]	Remaining percentage ([3]; rat, +Cofactors, 30 min) [%]	Remaining percentage ([3]; rat, +Cofactors, 60 min) [%]	Remaining percentage ([3]; rat, -Cofactors, 0.5 min) [%]	Remaining percentage ([3]; rat, -Cofactors, 60 min) [%]	other results
O=C(O)CC[C@H](NC(=O)Nc1ccc(C(F)(F)F)cc1)C(=O)O [SSA 1]	< 0.26	< 1.384	< 7.5	> 3.08	100.00	100.09	98.69	98.11	105.07	100.00	103.10	< 0.21	< 0.8652	100.00	96.56	99.83	96.48	95.66	100.00	102.14	CLint scaled at 1 µM ([1]; mouse): < 1.86 L/h/kg; solubility [2]: 303 µM (≈ 101 µg/mL); Percentage inhibition of bacterial growth, NCTC 775 (E. faecalis) (E. faecalis NCTC 775): 98.79% and 99%; Percentage inhibition of bacterial growth, NCTC 12204 (E. faecium) (E. faecium NCTC 12204): 99.02% and 99%; inhibition at 5000 µM (K. pneumoniae M6): 26.2%; Percentage inhibition of bacterial growth, M6 (K. pneumoniae) (K. pneumoniae M6): 26%; Percentage inhibition of bacterial growth, ATCC 9144 (S. aureus) (S. aureus ATCC 9144): 99%; inhibition at 5000 µM (S. aureus ATCC 9144): 98.7%; microsomal CLint at 1 µM [3, 5]: < 7.5 µL/min/mg; half-life at 1 µM [3, 5]: > 3.08 h; CLint scaled at 1 µM ([3]; rat): < 1.1 L/h/kg; Percentage inhibition of bacterial growth, ATCC 17978 (A. baumannii) (A. baumannii ATCC 17978): 90.67% and 91%
O=C(O)CC[C@H](NC(=O)Nc1ccc(C(F)(F)F)cc1)C(=O)O [SSA 2]	< 0.26	< 1.384	–	–	100.00	101.97	102.46	101.55	102.31	100.00	102.89	< 0.21	< 0.8652	100.00	95.53	94.28	97.57	96.64	100.00	97.74	Scale-up CLint ([1]; mouse): < 1.861 L/h/kg; in vitro CLint [1, 4]: < 7.50 µL/min/mg; in vitro t1/2 [1, 4]: > 3.0797 h; Solubility in PBS pH 7.4 ([2]; kinetic): 297.29 μM; Percentage inhibition of bacterial growth, NCTC 775 (E. faecalis) (E. faecalis NCTC 775): 21.86% and 22%; Percentage inhibition of bacterial growth, NCTC 12204 (E. faecium) (E. faecium NCTC 12204): 66.25% and 66%; Percentage inhibition of bacterial growth, M6 (K. pneumoniae) (K. pneumoniae M6): 17.56% and 18%; Percentage inhibition of bacterial growth, ATCC 9144 (S. aureus) (S. aureus ATCC 9144): 79.71% and 80%; Scale-up CLint ([3]; rat): < 1.098 L/h/kg; in vitro CLint [3, 5]: < 7.50 µL/min/mg; in vitro t1/2 [3, 5]: > 3.0797 h; Percentage inhibition of bacterial growth, ATCC 17978 (A. baumannii) (A. baumannii ATCC 17978): -23.34% and −23%
O=C(O)CC[C@@H](NC(=O)Nc1ccc(C(F)(F)F)cc1)C(=O)O [SSA 3]	< 0.26	< 1.384	< 7.5	> 3.08	100.00	99.16	100.05	98.24	98.27	100.00	93.98	< 0.21	< 0.8652	100.00	95.07	99.07	97.86	98.31	100.00	104.13	CLint scaled at 1 µM ([1]; mouse): < 1.86 L/h/kg; solubility [2]: 310 µM (≈ 104 µg/mL); inhibition at 5000 µM (E. faecalis NCTC 775; Enterococcus faecalis, NCTC775, 20 h, read-out: Percentage inhibition of bacterial growth, NCTC 775 (E. faecalis)): 98.8%; Percentage inhibition of bacterial growth, NCTC 775 (E. faecalis) (E. faecalis NCTC 775; listed as 3): 99%; inhibition at 5000 µM (E. faecium NCTC 12204; Enterococcus faecium, NCTC12204, 20 h, read-out: Percentage inhibition of bacterial growth, NCTC 12204 (E. faecium)): 99.4%; Percentage inhibition of bacterial growth, NCTC 12204 (E. faecium) (E. faecium NCTC 12204; listed as 3): 99%; inhibition at 5000 µM (K. pneumoniae M6): 15.4%; Percentage inhibition of bacterial growth, M6 (K. pneumoniae) (K. pneumoniae M6; listed as 3): 15%; Percentage inhibition of bacterial growth, ATCC 9144 (S. aureus) (S. aureus ATCC 9144; listed as 3): 99%; inhibition at 5000 µM (S. aureus ATCC 9144): 99.1%; microsomal CLint at 1 µM [3, 5]: < 7.5 µL/min/mg; half-life at 1 µM [3, 5]: > 3.08 h; CLint scaled at 1 µM ([3]; rat): < 1.1 L/h/kg; Percentage inhibition of bacterial growth, ATCC 17978 (A. baumannii) (A. baumannii ATCC 17978; listed as 3): 94.45% and 94%

Reference: PMC12645191, “Dicarboxylate and dicarboxylic acid appended supramolecular self-associating amphiphiles as antimicrobial agents against high priority bacterial pathogens” (Organic & Biomolecular Chemistry, 2025)
